Laboratory results reported in PMC9343874, “Comparative Pharmacokinetics of Cinobufacini Capsule and Injection by UPLC-MS/MS” (Frontiers in Pharmacology, 2022).
Read-outs that look alike come from different tables or passages of the source.

What was measured:
[1] = Pharmacokinetic study in rats after oral administration of cinobufacini capsule (UPLC-MS/MS of plasma); type: in vivo, rat; conditions: for AUC(0-inf) / AUC(0-t) / Cmax / Tmax / CL/F / MRT last / MRT inf / half-life / Vd/F: male, Sprague-Dawley, in vivo, rat plasma, mean ± SD, n = 6; for CL/F: read-out: CLz/F (converted); for MRT last: read-out: MRT0-t; for MRT inf: read-out: MRT0-∞; for half-life: read-out: T1/2z (converted); for Vd/F: read-out: Vz/F
Description: Male Sprague–Dawley rats (weighing 200–220 g) of SPF grade were offered by Sippr/BK laboratory Animal, Corp., Ltd. (Shanghai, China) and fed in the Laboratory Animal Center of the Shanghai University of Traditional Chinese Medicine. All the rats were kept under environmentally controlled conditions with constant temperature (22–24°C) and humidity (60–65%). The animal experiment program in the present research was approved by the Animal Committee of the Shanghai University of Traditional Chinese Medicine (PZSHUTCM210618012).
An Agilent 1290 liquid chromatographic system includes a G4220A quaternary pump, a G1326C column incubator, a G4226A automatic sampler, and a G1330B degasser. The column temperature was set to 35°C. A measure of 5 µL of samples were separated in an Agilent SB-C18 column (2.1 mm ×50 mm, 1.8 μm) and eluted at 0.3 ml/min, followed by gradient elution with water (0.1% V/V formic acid) (A) and acetonitrile (B) (0–1 min, 20%–20% B; 1–3.5 min, 20%–80% B; 4–4.1 min, 80%-20% B; 4.1–6 min, 20% B). The total run time was 6 minutes.
An Agilent 1290 Infinity series UPLC system was combined with an Agilent 6460 series triple quadrupole mass spectrometer (Agilent Technologies, Santa Clara, CA, United States) to quantify all 13 analytes in an ESI-positive ionization mode. Quantitative analysis was performed in an MRM mode. The mass spectrum conditions were as follows: capillary voltage, 4000V; drying gas (N2), gas flow rate: 10 L/min; sprayer, 30 psi; gas temperature 350°C; The delta EMV (+) 200 V; collision gas (N2); dwell time, 25 ms. Agilent’s MassHunter Workstation software was used for data collection, peak area calculation, and quantitative analysis.
A measure of 50 µL of the plasma sample was mixed with 10 µL of the internal standard solution (345 ng/ml) in a 1.5-ml centrifuge tube and vortexed for 5 min. The samples were extracted by 500 µL of ethyl acetate for 5 min and centrifuged at 4°C for 10 min (18000 rpm). All the supernatants were collected into another 1.5-ml centrifuge tube, dried under a gentle stream of nitrogen at 37°C, and then added with 50 µL of 80% methanol for resolution. The resolution samples were centrifuged at 4°C for 10 min (18000 rpm), and 5 µL supernatant was extracted and injected for analysis.
Twenty-four male Sprague–Dawley rats (weigh 200–220 g) were divided into four groups with six rats in each group randomly, including three capsule groups at three different doses and one injection group. In the instructions for cinobufacini capsule and injection, the clinical dosage for adults is 2 g per 70 kg orally and 20 ml per 70 kg intravenously, converting to rat doses of 180 mg/kg and 1.8 ml/kg, respectively.
In the pre-experiments, we compared cinobufacini capsule of 180 mg/kg (one-time clinical dose) and 900 mg/kg (five times of clinical dose) and Cinobufacini injection of 1.8 ml/kg, but concentrations of some compounds in plasma were too low and difficult to be quantified. […] The experimental rats were led to fast the night and were free to get access to water for 12 h before the pharmacokinetic study. After administration, blood samples (approximately 150 μL) of rats were collected via retro-orbital sinus into heparinized centrifuge tubes at 0.05, 0.083, 0.25, 0.5, 0.75, 1, 2, 4, 6, 8, and 10 h. After centrifugation at 5,000 rpm for 10 min, the plasma was transferred to 1.5-ml polypropylene tubes and stored at −80°C until UPLC-MS/MS analysis.
GraphPad Prism software (version 8.0.2) was used to draw the mean plasma concentration–time curves of all analytes. The pharmacokinetic parameters were calculated by DAS 3.2.8 software. Meanwhile, the pharmacokinetic data on rats were presented as mean ± standard deviation (SD). Differences of pharmacokinetic parameters between groups were analyzed by the t-test using SPSS software (version 26.0). Differences were considered significant statistically when the p-values were <0.05 and very significant statistically when the p-values were <0.01.

[2] = Stability of analytes in rat plasma QC samples under storage conditions; type: physicochemical; conditions: n = 6; for Stability during 24 h at 4°C, RE: post-treatment storage in autosampler; for −80°C for 30 days, RE / Three freeze–thaw cycles, RE: rat plasma; for −80°C for 30 days, RE: long-term; for Three freeze–thaw cycles, RE: −80°C to room temperature
Description: The stability of QC samples in six replicates at three concentrations (low, medium, and high levels) was analyzed under different storage conditions: the post-treatment stability was analyzed after storage in an autosampler (4°C) for 24 h. Freeze–thaw stability was investigated after three freeze–thaw cycles (−80°C to room temperature as one cycle). Long-term stability was assessed by analyzing QC samples kept at −80°C for 30 days. The concentrations of the analytes in the plasma samples and the QC samples were calculated by the calibration standard curve prepared each day. The stabilities of analytes were acceptable when the accuracy (RE, %) and precision (RSD, %) of all QC samples in all storage conditions were within ±15% compared to nominal concentrations.

[3] = oral cinobufacini capsule 0.9 g/kg (low)
[4] = oral cinobufacini capsule 1.8 g/kg (medium)
[5] = oral cinobufacini capsule 3.6 g/kg (high)
[6] = high QC level (249.58–250.28 ng/ml)
[7] = medium QC level (49.92–50.06 ng/ml)

Row | SMILES | AUC(0-inf) [1, 3] [ng·h/mL] | AUC(0-t) [1, 3] [ng·h/mL] | Cmax [1, 3] [ng/mL] | Tmax [1, 3] [min] | CL/F [1, 3] [mL/min/kg] | MRT last [1, 3] [h] | MRT inf [1, 3] [h] | half-life [1, 3] [min] | Vd/F [1, 3] [L/kg] | AUC(0-inf) [1, 4] [ng·h/mL] | AUC(0-t) [1, 4] [ng·h/mL] | Cmax [1, 4] [ng/mL] | Tmax [1, 4] [min] | CL/F [1, 4] [mL/min/kg] | MRT last [1, 4] [h] | MRT inf [1, 4] [h] | half-life [1, 4] [min] | Vd/F [1, 4] [L/kg] | AUC(0-inf) [1, 5] [ng·h/mL] | AUC(0-t) [1, 5] [ng·h/mL] | further results
1 | C[C@]12CC[C@H](O)C[C@H]1CC[C@@H]1[C@@H]2CC[C@]2(C)[C@@H](c3ccc(=O)oc3)[C@@H](O)[C@H]3O[C@]132 [DCG, desacetylcinobufagin] | 67 ± 15.3 | 61.7 ± 7.8 | 17.2 ± 4.77 | 49.8 ± 12 | 13 | 3.95 ± 0.73 | 4.74 ± 1.56 | 73.2 ± 48.6 | 2.8 ± 1.71 | 112 ± 14.9 | 100 ± 12.4 | 35.6 ± 2.59 | 53.4 ± 7.8 | 12 | 3 ± 0.63 | 4.86 ± 0.46 | 286 ± 31.2 | 5.62 ± 0.68 | 150 ± 30 | 148 ± 30.2 | Cmax [1, 5]: 56.6 ± 7.79 ng/mL; Tmax [1, 5]: 49.2 ± 7.2 min; CL/F [1, 5]: 17.2 mL/min/kg; MRT last [1, 5]: 2.44 ± 0.41 h; MRT inf [1, 5]: 2.65 ± 0.44 h; half-life [1, 5]: 125 ± 36 min; Vd/F [1, 5]: 2.79 ± 1.51 L/kg; time to reach maximum plasma concentration (Cmax) ([1]; rats, after gavage administration of cinobufacini capsule): ≤ 60 min; Stability during 24 h at 4°C, RE [2, 6]: 4.6%; Stability during 24 h at 4°C, RE ([2]; low QC level (4.99–5.00 ng/ml)): 1.5%; Stability during 24 h at 4°C, RE [2, 7]: 6.7%; −80°C for 30 days, RE [2, 6]: −3.8%; −80°C for 30 days, RE ([2]; low QC level (4.99–5.00 ng/ml)): 1.9%; −80°C for 30 days, RE [2, 7]: 3.8%; Three freeze–thaw cycles, RE [2, 6]: −2.8%; Three freeze–thaw cycles, RE ([2]; low QC level (4.99–5.00 ng/ml)): 3.0%; Three freeze–thaw cycles, RE [2, 7]: 4.9%
2 | C[C@]12CC[C@H](O)C[C@@]1(O)CC[C@@H]1[C@@H]2CC[C@]2(C)[C@@H](c3ccc(=O)oc3)[C@@H](O)[C@H]3O[C@]132 [DCT, desacetylcinobufotalin] | 13.4 ± 3.76 | 13 ± 3.69 | 6.94 ± 5.35 | 52.2 ± 37.8 | 66 | 2.53 ± 0.99 | 2.95 ± 1.78 | 49.8 ± 15 | 5.16 ± 2.57 | 35.7 ± 12.1 | 34.2 ± 10.4 | 12.3 ± 3.11 | 36.6 ± 19.2 | 50.3 | 2.68 ± 0.88 | 3.1 ± 0.92 | 118 ± 81.6 | 8.27 ± 5.18 | 62.7 ± 16.8 | 61.2 ± 16.1 | Cmax [1, 5]: 22.2 ± 5.19 ng/mL; Tmax [1, 5]: 23.4 ± 12 min; CL/F [1, 5]: 42.5 mL/min/kg; MRT last [1, 5]: 2.28 ± 0.37 h; MRT inf [1, 5]: 2.53 ± 0.58 h; half-life [1, 5]: 91.8 ± 49.2 min; Vd/F [1, 5]: 5.59 ± 3.29 L/kg; Stability during 24 h at 4°C, RE [2, 6]: 9.6%; Stability during 24 h at 4°C, RE ([2]; low QC level (4.99–5.00 ng/ml)): 11.4%; Stability during 24 h at 4°C, RE [2, 7]: 7.3%; −80°C for 30 days, RE [2, 6]: 8.7%; −80°C for 30 days, RE ([2]; low QC level (4.99–5.00 ng/ml)): 2.4%; −80°C for 30 days, RE [2, 7]: 12.7%; Three freeze–thaw cycles, RE [2, 6]: 7.3%; Three freeze–thaw cycles, RE ([2]; low QC level (4.99–5.00 ng/ml)): 3.7%; Three freeze–thaw cycles, RE [2, 7]: 12.1%
3 | C[C@]12CC[C@H](O)C[C@H]1CC[C@@H]1[C@@H]2[C@H](O)C[C@]2(C)[C@@H](c3ccc(=O)oc3)CC[C@]12O [GBL, gamabufotalin] | 13.6 ± 3.08 | 10.8 ± 2.45 | 13.3 ± 5.28 | 15 | 150 | 0.41 ± 0.11 | 0.64 ± 0.16 | 22.2 | 4.75 ± 0.98 | 23.4 ± 15 | 21.9 ± 11.6 | 21.5 ± 7.57 | 27.6 ± 13.8 | 210 | 0.73 ± 0.1 | 0.79 ± 0.22 | 16.8 ± 15.6 | 3.03 ± 2.02 | 54.5 ± 12.4 | 54 ± 12 | Cmax [1, 5]: 49.5 ± 10.9 ng/mL; Tmax [1, 5]: 21.6 ± 12 min; CL/F [1, 5]: 153 mL/min/kg; MRT last [1, 5]: 0.83 ± 0.12 h; MRT inf [1, 5]: 0.86 ± 0.14 h; half-life [1, 5]: 18 ± 9.6 min; Vd/F [1, 5]: 3.74 ± 1.66 L/kg; Stability during 24 h at 4°C, RE [2, 6]: 5.4%; Stability during 24 h at 4°C, RE ([2]; low QC level (4.99–5.00 ng/ml)): 12.0%; Stability during 24 h at 4°C, RE [2, 7]: 10.9%; −80°C for 30 days, RE [2, 6]: −4.9%; −80°C for 30 days, RE ([2]; low QC level (4.99–5.00 ng/ml)): 8.3%; −80°C for 30 days, RE [2, 7]: 12.4%; Three freeze–thaw cycles, RE [2, 6]: −0.6%; Three freeze–thaw cycles, RE ([2]; low QC level (4.99–5.00 ng/ml)): 13.2%; Three freeze–thaw cycles, RE [2, 7]: 10.7%
